This is an account of results in patent US20110092509A1, “Pharmaceutical Composition for Prevention or Treatment of Disease Associated with Tear Reduction” (Kissei Pharmaceutical, Co. Ltd., priority 2007, published 2011).

Structures can show the parent of a compound that is named as a salt.

Holding throughout (assay type): in vivo, rabbit
Experiment [1] deals with Japanese white rabbits. Put plainly: Measurement of quantity of protein in tear in rabbits (Micro BCA Protein Assay). To be noted: for Change in protein in tear: change before vs after instillation of 50 μL of 0.1 w/v % solution to both eyes, anesthetized male rabbits, mean. As for the experimental part: (§1) Three male Japanese white rabbits (about 3 kg) were allocated to each group. Each 50 μL of ½ sulfate salt of Compound 1 (0.1% phosphate buffer solution, pH7.4), terbutaline sulfate (0.1% phosphate buffer solution, pH7.4) or a solvent thereof (a phosphate buffer, pH7.4) was administered to both eyes of the rabbit which was anesthetized with pentobarbital (40 mg/kg, i.v.). Two pieces each of pre-weighed filter paper (Wattman No. 41, 0.22 μm thick, 2.5×15 mm) were inserted to the lower conjunctival sac of the right or left eye, and the difference in weight of the filter papers before and after insertion (post-insertion weight−pre-insertion weight) was defined as the quantity of tear secretion. The quantity of tear secretion was measured for 5 min before drug administration and for 5 min at 5 min after drug administration. Fifty (50) μL of a local anesthetic agent, 0.4% oxybuprocaine hydrochloride (Santen Co.), was instilled into eyes 5 min before each measurement. Tear and the instilled local anesthetic were wiped immediately before the filter paper was inserted.
(§2) Filter papers recovered after each measurement were placed into tubes. A phosphate buffer (pH 7.4) (500 μL) was added to each of the tubes, and they were mixed by vortex mixer for 30 sec. After the filter papers were removed and the mixture was centrifuged at 470×g for 5 min, protein concentrations in supernatant were measured using Micro BCA Protein Assay Reagent Kit (Pierce Co.). The quantity of protein in tear was calculated based on the measured protein concentration and quantity of tear secretion. The difference in the quantity of tear secretion before administration of a solvent, ½ sulfate of Compound 1 or terbutaline sulfate and that after administration was defined as a change in the quantity of tear secretion or protein in tear, respectively. Each milligram of the change in the quantity of tear was taken as 1 μL.

For experiment [2], the system named is Japanese white rabbits. Put plainly: Measurement of quantity of tear secretion in rabbits (filter paper weight, ocular instillation). The note with it: for Tear secretion: change before vs 5 min after instillation of 50 μL of 0.1 w/v % solution (phosphate buffer, pH7.4) to both eyes, anesthetized male rabbits, 5 min measurement, mean. The protocol:
as §1, §2

Experiment [3] has as its system PAS positive goblet cells. The experiment is described as follows: Mucin secretion from conjunctiva in rabbits: count of PAS positive goblet cells by impression cytology. To be noted: 0.1 w/v % instilled; for Count of PAS-positive goblet cells: percentage of the solvent group, decrease indicates facilitated mucin secretion from conjunctiva, mean. The protocol:
In addition, at the same timing of measurement of the quantity of tear secretion, 3 mm diameter cellulose acetate filter paper was pressed on the conjunctiva for 30 sec. by impression cytology method, and periodic acid/Schiff (PAS) staining was performed with the recovered filter papers. After filter papers were cleared and embedded, the number of PAS positive goblet cells existing in a certain visual field of a microscope was counted.
Decreases in the count of PAS positive goblet cells indicate that mucin secretion from the conjunctiva is facilitated. Each value is mean of 4 animals, and ½ sulfate of Compound 1 increased extremely about 30% more in the quantity of tear secretion, about 200% more the quantity of protein in tear and about 50% more mucin secretion from conjunctiva in comparison with the solvent and terbutaline sulfate.

Setting [4] is: 0.1 w/v % instilled, rabbits, '% more'.

Regarding `C[C@H](Cc1ccc2c(c1)OC[C@H](C(=O)O)O2)NC[C@H](O)c1cccc(Cl)c1` [Compound N-5984, 6-[2-(R)-[[2-(R)-(3-chlorophenyl)-2-hydroxyethyl]amino]propyl]-2,3-dihydro-1,4-benzodioxine-2-(R)-carboxylic acid], the “Effect on quantity of protein in tear (in words)” value with Japanese white rabbits [1] (0.1 w/v % instilled, rabbits) is reported as “extremely increased”. Further, the “Change in protein in tear” value in the experiment on Japanese white rabbits [1] came out at 2.72 µg. Also, in the experiment on Japanese white rabbits [2] (0.1 w/v % instilled, rabbits), the “Effect on quantity of tear secretion (in words)” value is recorded as “extremely increased”. In the experiment with Japanese white rabbits [2], this compound registered a Tear secretion of 4.42 µL. Also, the “Effect on mucin secretion from conjunctiva (in words)” value in experiment [3] (rabbits) is “extremely increased”. For the same compound, the “Count of PAS-positive goblet cells” value in experiment [3] came out at 57.1%.

On to `CC(C)(C)NCC(O)c1cc(O)cc(O)c1` (stereo not drawn) [Terbutaline sulfate, reference compound], for which, in the experiment with Japanese white rabbits [1], the “Change in protein in tear” value was 1.04 µg. This compound also had a Tear secretion in the experiment with Japanese white rabbits [2] of 3.80 µL. The “Count of PAS-positive goblet cells” value in experiment [3] came out at 77.3%.

Take `CN(C)C(=O)COc1ccc2c(c1)C[C@@H](NC[C@H](O)c1ccc(O)cc1)CC2` [½ sulfate of Compound 1, 2-[(2S)-2-[[(2R)-2-hydroxy-2-(4-hydroxyphenyl)ethyl]-amino]-1,2,3,4-tetrahydronaphthalen-7-yloxy]-N,N-dimethyl-acetamide]: the “Increase in quantity of protein in tear in comparison with the solvent and terbutaline sulfate” value with Japanese white rabbits [1] (setting [4]) is “about 200%”. Besides, the “Change in protein in tear” value in the experiment with Japanese white rabbits [1] turned out to be 2.57 µg. Besides, the “Increase in quantity of tear secretion in comparison with the solvent and terbutaline sulfate” value in the experiment with Japanese white rabbits [2] (setting [4]) is reported as “about 30%”. Also, the Tear secretion in the experiment on Japanese white rabbits [2] was 4.87 µL. Besides, the “Increase in mucin secretion from conjunctiva in comparison with the solvent and terbutaline sulfate” value in experiment [3] (rabbits, '% more') is reported as “about 50%”. The “Count of PAS-positive goblet cells” value in experiment [3] worked out at 64.8%.
